Assay results taken from ChEMBL document CHEMBL4699520, “A guanidinium-based inhibitor of a type I isopentenyl diphosphate isomerase” (Bioorg Med Chem Lett, 2020).
Active and inactive are the calls of the source. The rule behind the calls is not given here.

How the values were obtained:
[1] = Competitive inhibition of recombinant N-terminal hexaHis-tagged Staphylococcus aureus MS4 DSQS expressed in Escherichia coli Rosetta(DE3) using varying levels of FPP as substrate by Line weaver Burk plot analysis
[2] = Inhibition of 4-DMATS (unknown origin)
[3] = Inhibition of full-length N-terminal hexaHis-tagged Escherichia coli type 1 IDI using IPP as substrate by enzyme coupled assay
[4] = Competitive inhibition of full-length N-terminal hexaHis-tagged Escherichia coli type 1 IDI using varying levels of IPP as substrate by Line weaver Burk plot analysis
[5] = target: T1, Farnesyl pyrophosphate synthase (Homo sapiens, UniProt P14324); assay: Inhibition of N-terminal hexaHis-tagged human FPPS (6 to 353 residues) expressed in Escherichia coli using GPP and IPP as substrate by enzyme coupled assay
T1 sequence (P14324 whole entry): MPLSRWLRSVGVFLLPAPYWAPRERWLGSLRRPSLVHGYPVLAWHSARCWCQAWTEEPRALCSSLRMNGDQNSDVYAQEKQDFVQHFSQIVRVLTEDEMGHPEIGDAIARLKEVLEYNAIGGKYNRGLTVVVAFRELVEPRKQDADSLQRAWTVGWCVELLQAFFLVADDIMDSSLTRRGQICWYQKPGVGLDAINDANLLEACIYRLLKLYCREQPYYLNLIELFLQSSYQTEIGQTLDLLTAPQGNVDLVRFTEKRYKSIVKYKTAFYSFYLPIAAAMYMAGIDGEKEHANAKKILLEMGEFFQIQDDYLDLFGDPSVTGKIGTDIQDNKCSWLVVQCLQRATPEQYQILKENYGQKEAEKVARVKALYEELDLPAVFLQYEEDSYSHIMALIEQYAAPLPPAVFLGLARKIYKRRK

Claviceps purpurea = assay: Inhibition of Claviceps purpurea type 1 IDI

Row | SMILES | Ki [1] [nM] | inhibition [2] | IC50 [3] [µM] | Ki [4] [µM] | IC50 [5] [µM] | Kdiss (Claviceps purpurea)
1 | CC(C)=CCC/C(C)=C/CC/[N+](C)=C/NCP(=O)(O)CP(=O)([O-])O | 4200 | – | – | – | – | –
2 | CC(C)CCCC(C)CCCN(C)C(=O)NCP(=O)(O)CP(=O)(O)O (stereo unspecified) | 610 | – | – | – | – | –
3 | NC(N)=NCP(=O)(O)CP(=O)(O)O | – | inactive | 0.3 | 0.12 | 233 | –
4 | CC(C)=CCC/C(C)=C/CC/[N+](C)=C(\N)NCP(=O)(O)CP(=O)([O-])O | 1900 | – | – | – | – | –
5 | NCP(=O)(O)CP(=O)(O)O | – | inactive | 15 | 4.2 | 150 | –
6 | CC(=O)NCP(=O)(O)CP(=O)(O)O | – | inactive | 190 | 51.7 | 177 | –
7 | CN(C)CCOP(=O)(O)OP(=O)(O)O | – | – | – | – | – | < 1.2 10^-10M
